Results reported in patent US20240158446A1, “CYCLIC COMPOUND HAVING SELECTIVE INHIBITORY ACTION ON KRAS OVER HRAS AND NRAS” (CHUGAI SEIYAKU KABUSHIKI KAISHA, priority 2021, published 2024).
pKd: −log10 of the molar value. *1 amine or outer side, *2 acyl side, *3 side chain or, on linkers, in order; H or OH if unused. Where a SMILES comes first, the peptide text is derived from it. Bridges are numbered along the chain shown (N, C = ends). [ ]: non-standard residue; d: D form. The star is where a group is joined. ξ: configuration not given here. hPhe(3-Cl-4-CF3) = N[C@@H](CCc1ccc(C(F)(F)F)c(Cl)c1)C(=O)O; X26 = C=CCN([C@@H](Cc1ccccc1)C(=O)[*:2])[*:1]; NMeGly(cPent) = CN[C@H](C(=O)O)C1CCCC1; NMeNle(5-ene) = C=CCC[C@H](NC)C(=O)O; dIle(3ξ) = CCC(C)[C@@H](N)C(=O)O; NMeD = CN[C@@H](CC(=O)O)C(=O)O; NMeL = CN[C@@H](CC(C)C)C(=O)O; Morpholide = C1CN(*)CCO1; Ac5c = NC1(C(=O)O)CCCC1; Sar = CNCC(=O)O

Experiments:
[1] = biological target: GDP-bound KRAS wild-type protein (Homo sapiens, UniProt P01116); assay: Binding to KRAS by surface plasmon resonance (SPR), Single Cycle Kinetics; conditions: SPR Single Cycle Kinetics, GDP-bound KRAS wild-type protein, 1:1 binding model; read-out: KRAS KD
[2] = biological target: GDP-bound NRAS wild-type protein (Homo sapiens, UniProt P01111); assay: Binding to NRAS by surface plasmon resonance (SPR), Single Cycle Kinetics; conditions: SPR, GDP-bound NRAS wild-type protein vs GDP-bound KRAS wild-type protein
[3] = biological target: GDP-bound HRAS wild-type protein (Homo sapiens, UniProt P01112); assay: Binding to HRAS by surface plasmon resonance (SPR), Single Cycle Kinetics; conditions: SPR, GDP-bound HRAS wild-type protein vs GDP-bound KRAS wild-type protein
Sequence of GDP-bound HRAS wild-type protein (P01112 whole entry): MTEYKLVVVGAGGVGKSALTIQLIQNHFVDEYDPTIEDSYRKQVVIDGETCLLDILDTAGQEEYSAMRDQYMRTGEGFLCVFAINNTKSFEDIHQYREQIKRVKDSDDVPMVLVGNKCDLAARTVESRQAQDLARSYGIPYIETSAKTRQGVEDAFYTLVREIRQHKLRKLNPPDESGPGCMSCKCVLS

Sequence of GDP-bound KRAS wild-type protein (P01116 whole entry): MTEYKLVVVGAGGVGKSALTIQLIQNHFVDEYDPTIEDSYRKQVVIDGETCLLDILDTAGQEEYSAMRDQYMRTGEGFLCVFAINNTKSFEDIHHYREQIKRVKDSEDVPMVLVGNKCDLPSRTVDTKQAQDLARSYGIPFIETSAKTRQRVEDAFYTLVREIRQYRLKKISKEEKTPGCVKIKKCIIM
Sequence of GDP-bound NRAS wild-type protein (P01111 whole entry): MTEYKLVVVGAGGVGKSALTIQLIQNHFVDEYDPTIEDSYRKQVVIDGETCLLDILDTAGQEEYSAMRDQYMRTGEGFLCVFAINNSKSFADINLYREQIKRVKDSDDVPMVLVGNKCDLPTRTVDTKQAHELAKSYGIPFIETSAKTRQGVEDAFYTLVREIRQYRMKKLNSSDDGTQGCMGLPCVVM

SMILES	pKd [1]	NRAS/KRAS (ratio of KD value with respect to NRAS to KD value with respect to KRAS) [2]	HRAS/KRAS (ratio of KD value with respect to HRAS to KD value with respect to KRAS) [3]
CC[C@H](C)[C@@H]1NC(=O)[C@H](C)N(C)C(=O)C[C@@H](C(=O)N(C)C)N(C)C(=O)[C@H](C2CCCC2)N(C)C(=O)C2(CCCC2)NC(=O)[C@@H]2CC(F)(F)CN2C(=O)[C@H](CCc2cc(F)c(C(F)(F)F)c(F)c2)NC(=O)CN(C)C(=O)[C@H](Cc2ccc(C(F)(F)F)cc2)N2CCCC[C@@H](C2=O)N(C)C(=O)CN(C)C1=O [PP0583]	10.72	C (A compound having a KD ratio of 0.1 or more and less than 3 is denoted as C)	C (A compound having a KD ratio of 0.1 or more and less than 3 is denoted as C)
CC[C@H](C)[C@@H]1NC(=O)[C@H](C)N(C)C(=O)C[C@@H](C(=O)N(C)C)N(C)C(=O)[C@H](C2CCCC2)N(C)C(=O)C2(CCC2)NC(=O)[C@@H]2CC(F)(F)CN2C(=O)[C@H](CCc2cc(F)c(C(F)(F)F)c(F)c2)NC(=O)CN(C)C(=O)[C@H](Cc2ccc(C(F)(F)F)cc2)N2CCCC[C@@H](C2=O)N(C)C(=O)CN(C)C1=O [PP0584]	11.11	C (A compound having a KD ratio of 0.1 or more and less than 3 is denoted as C)	C (A compound having a KD ratio of 0.1 or more and less than 3 is denoted as C)
CCO[C@@H]1C[C@H]2C(=O)NC3(CCC3)C(=O)N(C)[C@@H](C3CCCC3)C(=O)N(C)[C@H](C(=O)N3CCOCC3)CC(=O)N(C)[C@@H](C)C(=O)N[C@@H]([C@@H](C)CC)C(=O)N(C)CC(=O)N(C)[C@H]3CCCCN(C3=O)[C@@H](Cc3ccc(C(F)(F)F)cc3)C(=O)N(C)CC(=O)N[C@@H](CCc3cc(F)c(C(F)(F)F)c(F)c3)C(=O)N2C1 [PP0585]	10.66	B (a compound having 3 or more and less than 10 is denoted as B)	B (a compound having 3 or more and less than 10 is denoted as B)
CCO[C@@H]1C[C@H]2C(=O)NC3(CCCC3)C(=O)N(C)[C@@H](C3CCCC3)C(=O)N(C)[C@H](C(=O)N(C)C)CC(=O)N(C)[C@@H](C)C(=O)N[C@@H]([C@@H](C)CC)C(=O)N(C)CC(=O)N(C)[C@H]3CCCCN(C3=O)[C@@H](Cc3ccc(C(F)(F)F)cc3)C(=O)N(C)CC(=O)N[C@@H](CCc3cc(F)c(C(F)(F)F)c(F)c3)C(=O)N2C1 [PP0586]	11.00	C (A compound having a KD ratio of 0.1 or more and less than 3 is denoted as C)	B (a compound having 3 or more and less than 10 is denoted as B)
CCO[C@@H]1C[C@H]2C(=O)NC3(CCC3)C(=O)N(C)[C@@H](C3CCCC3)C(=O)N(C)[C@H](C(=O)N(C)C)CC(=O)N(C)[C@@H](C)C(=O)N[C@@H]([C@@H](C)CC)C(=O)N(C)CC(=O)N(C)[C@H]3CCCCN(C3=O)[C@@H](Cc3ccc(C(F)(F)F)cc3)C(=O)N(C)CC(=O)N[C@@H](CCc3cc(F)c(C(F)(F)F)c(F)c3)C(=O)N2C1 [PP0587]	10.85	C (A compound having a KD ratio of 0.1 or more and less than 3 is denoted as C)	C (A compound having a KD ratio of 0.1 or more and less than 3 is denoted as C)
CC[C@H](C)[C@@H]1NC(=O)[C@H](CC(C)C)N(CC)C(=O)C[C@@H](C(=O)N2CCOCC2)N(C)C(=O)[C@H](C2CCCC2)N(C)C(=O)C2(CCCC2)NC(=O)[C@@H]2CCCN2C(=O)[C@H](CCc2cc(F)c(C(F)(F)F)c(F)c2)NC(=O)CN(C)C(=O)[C@H](Cc2ccc(C(F)(F)F)cc2)N2CCCC[C@@H](C2=O)N(C)C(=O)CN(C)C1=O [PP0588]	9.96	B (a compound having 3 or more and less than 10 is denoted as B)	B (a compound having 3 or more and less than 10 is denoted as B)
CC[C@H](C)[C@@H]1NC(=O)[C@H](CC(C)C)N(C)C(=O)C[C@@H](C(=O)N2CCOCC2)N(C)C(=O)[C@H](C2CCCC2)N(C)C(=O)C2(CCCC2)NC(=O)[C@H](C)N(CC)C(=O)[C@H](CCc2cc(F)c(C(F)(F)F)c(F)c2)NC(=O)CN(C)C(=O)[C@H](Cc2ccc(C(F)(F)F)cc2)N2CCCC[C@@H](C2=O)N(C)C(=O)CN(C)C1=O [PP0589]	9.44	B (a compound having 3 or more and less than 10 is denoted as B)	B (a compound having 3 or more and less than 10 is denoted as B)
CC[C@H](C)[C@@H]1NC(=O)[C@H](CC(C)C)NC(=O)C[C@@H](C(=O)N2CCOCC2)N(C)C(=O)[C@H](C2CCCC2)N(C)C(=O)C2(CCCC2)NC(=O)[C@@H]2CCCN2C(=O)[C@H](CCc2cc(F)c(C(F)(F)F)c(F)c2)NC(=O)CN(C)C(=O)[C@H](Cc2ccc(C(F)(F)F)cc2)N2CCCC[C@@H](C2=O)N(C)C(=O)CN(C)C1=O [PP0590]	9.57	C (A compound having a KD ratio of 0.1 or more and less than 3 is denoted as C)	B (a compound having 3 or more and less than 10 is denoted as B)
CC[C@H](C)[C@@H]1NC(=O)[C@H](CC(F)(F)F)N(C)C(=O)C[C@@H](C(=O)N2CCOCC2)N(C)C(=O)[C@H](C2CCCC2)N(C)C(=O)C2(CCCC2)NC(=O)[C@@H]2CCCN2C(=O)[C@H](CCc2cc(F)c(C(F)(F)F)c(F)c2)NC(=O)CN(C)C(=O)[C@H](Cc2ccc(C(F)(F)F)cc2)N2CCCC[C@@H](C2=O)N(C)C(=O)CN(C)C1=O [PP0594]	10.14	C (A compound having a KD ratio of 0.1 or more and less than 3 is denoted as C)	B (a compound having 3 or more and less than 10 is denoted as B)
CC(C)C[C@H]1C(=O)N[C@@H](C2CCC2)C(=O)N(C)CC(=O)N(C)[C@H]2CCCCN(C2=O)[C@@H](Cc2ccc(C(F)(F)F)cc2)C(=O)N(C)CC(=O)N[C@@H](CCc2cc(F)c(C(F)(F)F)c(F)c2)C(=O)N2CCC[C@H]2C(=O)NC2(CCCC2)C(=O)N(C)[C@@H](C2CCCC2)C(=O)N(C)[C@H](C(=O)N2CCOCC2)CC(=O)N1C [PP0596]	10.00	B (a compound having 3 or more and less than 10 is denoted as B)	B (a compound having 3 or more and less than 10 is denoted as B)
CCC(CC)[C@@H]1NC(=O)[C@H](CC(C)C)N(C)C(=O)C[C@@H](C(=O)N2CCOCC2)N(C)C(=O)[C@H](C2CCCC2)N(C)C(=O)C2(CCCC2)NC(=O)[C@@H]2CCCN2C(=O)[C@H](CCc2cc(F)c(C(F)(F)F)c(F)c2)NC(=O)CN(C)C(=O)[C@H](Cc2ccc(C(F)(F)F)cc2)N2CCCC[C@@H](C2=O)N(C)C(=O)CN(C)C1=O [PP0597]	9.48	B (a compound having 3 or more and less than 10 is denoted as B)	B (a compound having 3 or more and less than 10 is denoted as B)
C=CCC[C@H]1C(=O)N(CC=C)[C@@H](Cc2ccccc2)C(=O)N(C)CC(=O)N[C@@H](CCc2ccc(C(F)(F)F)c(Cl)c2)C(=O)N2CCC[C@H]2C(=O)NC2(CCCC2)C(=O)N(C)[C@@H](C2CCCC2)C(=O)N(C)[C@H](C(=O)N2CCOCC2)CC(=O)N(C)[C@@H](CC(C)C)C(=O)N[C@H](C(C)CC)C(=O)N(C)CC(=O)N1C (stereo partly drawn) [PP0599] ([NMeL][dIle(3ξ)][Sar][NMeNle(5-ene)][X26][Sar][hPhe(3-Cl-4-CF3)]P[Ac5c][NMeGly(cPent)][NMeD]-Morpholide; lactam N-11)	6.74	C (A compound having a KD ratio of 0.1 or more and less than 3 is denoted as C)	B (a compound having 3 or more and less than 10 is denoted as B)
CC[C@H](C)[C@@H]1NC(=O)[C@H](CC(C)C)N(C)C(=O)C[C@@H](C(=O)N2CCOCC2)N(C)C(=O)[C@H](C2CCCC2)N(C)C(=O)C2(CCCC2)NC(=O)[C@@H]2CCCN2C(=O)[C@H](CCc2ccc(C(F)(F)F)c(Cl)c2)NC(=O)CN(C)C(=O)[C@H](Cc2ccc(Cl)cc2)N2C/C=C\CC[C@@H](C2=O)N(C)C(=O)CN(C)C1=O [PP0608]	8.77	C (A compound having a KD ratio of 0.1 or more and less than 3 is denoted as C)	B (a compound having 3 or more and less than 10 is denoted as B)
CC[C@H](C)[C@@H]1NC(=O)[C@H](CC(C)C)N(C)C(=O)C[C@@H](C(=O)N2CCOCC2)N(C)C(=O)[C@H](C2CCCC2)N(C)C(=O)C2(CCCC2)NC(=O)[C@@H]2CCCN2C(=O)[C@H](CCc2ccc(C(F)(F)F)c(Cl)c2)NC(=O)CN(C)C(=O)[C@H](Cc2ccc(OC(F)(F)F)cc2)N2C/C=C\CC[C@@H](C2=O)N(C)C(=O)CN(C)C1=O [PP0610]	7.31	B (a compound having 3 or more and less than 10 is denoted as B)	B (a compound having 3 or more and less than 10 is denoted as B)
